Assay results taken from patent US20260217701A1, “SELECTIVE BET INHIBITORS AND USES THEREOF” (Tay Therapeutics Limited, priority 2022, published 2026).

Tests used:
[1] = system: collagen-induced arthritis; assay: CIA model: histopathologic analysis of hind limbs; format: in vivo, Lewis rats; conditions: for Erosion/Ulcer, cartilaginous, Marked (number of animals) / Erosion/Ulcer, cartilaginous, Mild (number of animals) / Erosion/Ulcer, cartilaginous, Minimal (number of animals) / Erosion/Ulcer, cartilaginous, Moderate (number of animals) / Granulation tissue, Marked (number of animals) / Granulation tissue, Mild (number of animals) / Granulation tissue, Minimal (number of animals) / Granulation tissue, Moderate (number of animals) / Increased bone, periosteum, Marked (number of animals) / Increased bone, periosteum, Mild (number of animals) / Increased bone, periosteum, Minimal (number of animals) / Increased bone, periosteum, Moderate (number of animals) / Increased eroded surface, bone, Marked (number of animals) / Increased eroded surface, bone, Mild (number of animals) / Increased eroded surface, bone, Minimal (number of animals) / Increased eroded surface, bone, Moderate (number of animals) / Mixed cell inflammation, Marked (number of animals) / Mixed cell inflammation, Mild (number of animals) / Mixed cell inflammation, Minimal (number of animals) / Mixed cell inflammation, Moderate (number of animals) / No Visible Lesions (number of animals): hind limbs, CIA induced, 8 animals examined, comparator, dose not given; for Pathologic observations after microscopic evaluation: Group 3 (CIA + Dexamethasone)
Text: Mean histopathologic scores for tissue samples from animals in Groups 1-6 are depicted in FIG. 22A, and day 21 histology scores for all animals are illustrated in FIG. 22B.

[2] = system: collagen-induced arthritis; conditions: for animals with weight gain at end of study / diarrhea over the 21-day period / increase in body weight, day 21 vs day 0: rat, in vivo; for increase in body weight, day 21 vs day 0: po; for control of hind paw volume: reference treatments vs CIA+vehicle (group 2)
Description: (§1) The emulsion was cooled in an ice water bath during the formulation. The final concentration of collagen was 1 mg/mL. The emulsion is prepared fresh immediately prior to injection.
as §1
Experimental groups for the study are outlined in Table 5A. […] Animals in group one received no immunization.
IHC markers for staining were selected after evaluating clinical and histopathological scores for animals. After the skin was removed, the right hind limb was snap frozen in liquid nitrogen and RNA and protein analysis was performed.
Blood samples were collected from animals in groups 1-7 via cardiac puncture following euthanasia on Day 21. […] Serum was divided into two separate tubes and stored at −75±15° C. One tube was used to analyze IgG1, and the other tube was reserved for additional analyses.
H&E-stained slides of designated tissues from animals were transferred to an independent pathologist for microscopic evaluation (SPFBio). Samples were assigned the histologic grades based on the severity of change from tissue where CIA was not induced. Histology grades assigned were as follows: grade 1 (minimal change), grade 2 (mild change), grade 3 (moderate change), grade 4 (marked change), and grade 5 (severe change). A grade may be assigned for each indicator of disease severity: inflammation, mixed cell; granulation tissue; increased bone, periosteum; increased eroded surface, bone and erosion/ulcer, cartilaginous. […] Moderate inflammation was also associated with increased edema fluid, fibrin, and cellular debris. Marked mixed cell inflammation was characterized by dense, widespread accumulations of neutrophils and macrophages with lesser number of lymphocytes within one or more joint spaces, synovium and periarticular soft tissues. Marked inflammation was also associated with abundant edema fluid, fibrin, and cellular debris.
Marked granulation tissue (pannus) was associated with inflammation and was characterized by widespread fibrovascular connective tissue that expanded/replaced the periarticular soft tissues of one or more joints, extended into/expanded joint spaces, was contiguous with areas of erosion/ulcer in articular cartilage and/or increased eroded surface of bone, and variably extended along the diaphysis.
Marked increased periosteal bone (periosteal bone formation) was characterized by extensive areas of increased bone matrix and numerous prominent osteoblasts lining trabecular surfaces along the metaphysis and/or diaphysis of one or more bones.

| SMILES | Erosion/Ulcer, cartilaginous, Marked (number of animals) [1] | Erosion/Ulcer, cartilaginous, Mild (number of animals) [1] | Erosion/Ulcer, cartilaginous, Minimal (number of animals) [1] | Erosion/Ulcer, cartilaginous, Moderate (number of animals) [1] | Granulation tissue, Marked (number of animals) [1] | Granulation tissue, Mild (number of animals) [1] | Granulation tissue, Minimal (number of animals) [1] | Granulation tissue, Moderate (number of animals) [1] | Increased bone, periosteum, Marked (number of animals) [1] | Increased bone, periosteum, Mild (number of animals) [1] | Increased bone, periosteum, Minimal (number of animals) [1] | Increased bone, periosteum, Moderate (number of animals) [1] | Increased eroded surface, bone, Marked (number of animals) [1] | Increased eroded surface, bone, Mild (number of animals) [1] | Increased eroded surface, bone, Minimal (number of animals) [1] | Increased eroded surface, bone, Moderate (number of animals) [1] | Mixed cell inflammation, Marked (number of animals) [1] | Mixed cell inflammation, Mild (number of animals) [1] | Mixed cell inflammation, Minimal (number of animals) [1] | Mixed cell inflammation, Moderate (number of animals) [1] | other results |
| --- | --- | --- | --- | --- | --- | --- | --- | --- | --- | --- | --- | --- | --- | --- | --- | --- | --- | --- | --- | --- | --- |
| CNC(=O)c1cc(C(=O)NC2CC2)cn(Cc2ccccc2)c1=O [GSK620] | 0 | 6 | 0 | 2 | 0 | 4 | 0 | 4 | 0 | 6 | 0 | 2 | 0 | 4 | 1 | 3 | 0 | 0 | 0 | 8 | Erosion/ulcer in articular cartilage, grade ([1]; Group 4 (CIA + GSK620)): mild and mild to moderate; Granulation tissue (pannus), grade ([1]; Group 4 (CIA + GSK620)): mild and mild to moderate; Increased eroded surface of bone (bone resorption), grade ([1]; Group 4 (CIA + GSK620)): mild and minimal to moderate; Increased periosteal bone (periosteal bone formation), grade ([1]; Group 4 (CIA + GSK620)): mild and mild to moderate; Mixed cell inflammation, grade ([1]; Group 4 (CIA + GSK620)): moderate; No Visible Lesions (number of animals) [1]: 0; animals exhibiting disease ([2]; group 4, day 18): all animals; animals with weight gain at end of study [2]: 4/8; diarrhea over the 21-day period [2]: did not have diarrhea; increase in body weight, day 21 vs day 0 [2]: 0.8%; control of hind paw volume [2]: failed to prevent an increase in paw volume |
| C[C@@H]1C[C@H]2[C@@H]3CCC4=CC(=O)C=C[C@]4(C)[C@@]3(F)[C@@H](O)C[C@]2(C)[C@@]1(O)C(=O)CO [Dexamethasone, dexamethasone] | 0 | 0 | 0 | 0 | 0 | 0 | 0 | 0 | 0 | 0 | 0 | 0 | 0 | 0 | 0 | 0 | 0 | 0 | 0 | 0 | Pathologic observations after microscopic evaluation [1]: no histopathological observations noted; Pathologic observations after microscopic evaluation ([1]; listed as dexamethasone): No pathologic observations; No Visible Lesions (number of animals) [1]: 8; animals with weight gain at end of study [2]: 4/8; diarrhea over the 21-day period [2]: did not have diarrhea; increase in body weight, day 21 vs day 0 [2]: 1.3%; average overall clinical score at plateau ([2]; reference treatments (groups 3 and 4), around day 18): never exhibited any signs of disease; control of hind paw volume [2]: effective at controlling paw volume |
